Laboratory results published in patent US20100009934A1, “BETA ADRENERGIC RECEPTOR AGONISTS FOR THE TREATMENT OF B-CELL PROLIFERATIVE DISORDERS” (CombinatoRx, Incorporated, priority 2008, published 2010).

Columns and labels:
MM.1S cells [1] = experiment: Annexin V / propidium iodide apoptosis assay, MM.1S; type: cell-based, human; conditions: 0.3 nM salmeterol, 72 hours (FIG. 2)
Method: Effects on cell viability were determined by measuring the percent of cells that were annexin V positive (an early marker for apoptosis) and by measuring the percent of cells propidium iodide (PI) positive, an indicator that cellular membranes are compromised and a marker of cell death.

MM.1S cells [2] = experiment: Annexin V/PI FACS assay of control MM.1S and cells cultured one month with salmeterol or salbutamol; type: cell-based, human; conditions: 250 pM salmeterol
Method: Forty eight hours later, the percent of cells positive for Annexin V and propidium iodide (PI) was determined using FACS (FIG. 5).

OCc1cc(C(O)CNCCCCCCOCCCCc2ccccc2)ccc1O (stereo not drawn) [salmeterol]
induction of MM.1S cell apoptosis (MM.1S cells [1]): ~40% | sensitivity (Annexin V/PI) (MM.1S cells [2]; cells treated for one month with salmeterol or salbutamol, 48 hours): not sensitive | Annexin V/PI+ cells (MM.1S cells [2]; control cells, 48 hours (FIG. 5)): 20%
